Results on two substances are retold here after patent US7368432B2 (Xenome, Ltd., priority 1999, dated 2008).

One series has as its system neurotensin receptors. As to conditions: in vivo; cited from earlier work.
A further series deals with CF-1 mice. As to conditions: mouse, in vivo.

On to Contulakin-G, for which, in the series on neurotensin receptors, the “potency in inhibiting pain relative to neurotensin” value is given as “significantly more potent than neurotensin”.
With NGVCCGYKLCHOC [Mar1], the “motor impairment (rotarod)” value in the series with CF-1 mice is “do not produce gross motor impairment or impair performance on the rotarod test”.
